Holding throughout (assay): NCI-60 cell line screen, 48 h
For assay [1], the system named is A549 NSCLC.
Assay [2] has as its system EKVX NSCLC.
The subject of assay [3] is M14 melanoma.
Assay [4] has as its system NCI-H23 lung.
For assay [5], the system named is NCI-H460 lung.
The subject of assay [6] is NCI-H522 lung.
The subject of assay [7] is SW-620 colon.
For assay [8], the system named is RXF 393 renal.
Assay [9] deals with UACC-62 melanoma.

Each structure is given as a SMILES string.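 Where inhibition never reached the appropriate level, the endpoint shown equals the highest concentration tested. Otherwise, values were interpolated linearly from a five-concentration, 48-hour dose response in 96-well plates. Abbreviation: GI50, concentration required for 50% inhibition of growth. TGI is the concentration that stops growth completely.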

As for `NC(=O)COc1ccc(Br)cc1Br`, the TGI in assay [1], in assay [2], in assay [3], in [4], in assay [5] and in assay [6] was above 100 µM each time. The compound further registered a TGI in assay [7] above 100 µM.

In the case of `CC(C)C(NCc1c2ccccc2nc2ccccc12)C(=O)O` (stereo not given), the TGI in assay [1] is above 100 µM; in assay [2] it was above 100 µM; in assay [3], above 100 µM; in assay [4], above 100 µM; in assay [5], above 100 µM; in [6], 91.2 µM. Also, the TGI in [8] and in assay [7] was above 100 µM each time.

`O=C1/C(=C/c2ccc(Cl)cc2)COc2ccc(Br)cc21`: the TGI in assay [1], in assay [2], in assay [4], in [5], in assay [6] and in assay [8] was above 100 µM each time. Further, the TGI in assay [7] is above 100 µM.

For the compound `O=C1/C(=C/c2ccccc2)CN(C(=O)Oc2ccccc2)C/C1=C\c1ccccc1`, the TGI in assay [1], in assay [2], in assay [3], in [4], in [5] and in assay [6] was above 100 µM each time. In addition, the results for the TGI in assay [8], in [7] and in assay [9] were 31.4 µM, above 100 µM and above 100 µM, respectively.

For `O=[P+](O)c1cc2c3ccccc3ccc2c2ccccc12`, the TGI in [1], in assay [2], in assay [3], in [4], in assay [5] and in [6] was above 100 µM each time. The TGI in assay [8], in assay [7] and in [9] was above 100 µM each time.

Consider `O=c1cc(-c2ccccc2)[nH]c2c(F)ccc(F)c12`, for which the TGI in assay [1], in [3], in assay [4], in assay [5], in assay [6] and in [8] was above 100 µM in each case. Further, the TGI in assay [7] and in assay [9] was above 100 µM each time.

For `CC(=O)[O-].CC(=O)[O-].CC(=O)[O-].CC(=O)[O-].CO.CO.CO.[Rh+2].[Rh+2].c1ccc(-c2ccccn2)nc1`, the GI50 in assay [1], in [2], in assay [3], in [4], in assay [5] and in assay [8] was above 100 µM throughout. Besides, the GI50 in [7] and in assay [9] was above 100 µM in each case. Moreover, the TGI in assay [1], in assay [2], in assay [3], in assay [4], in [5] and in assay [8] was above 100 µM each time. In addition, the TGI in assay [7] and in assay [9] was above 100 µM in each case.

As to `CC(C)N(C(=O)C12C3C4C5C3C1(C(=O)N(C(C)C)C(C)C)C5C42)C(C)C` (stereo not given), the TGI in assay [1], in [2], in [3], in assay [4], in assay [5] and in assay [6] was above 100 µM throughout. Further, the TGI is above 100 µM in [8], above 88.2 µM in assay [7] and above 100 µM in assay [9].

For `CC(C)=CCCC1(C)C=Cc2c(ccc3c2[nH]c2cc(O)c(C)cc23)O1` (stereo not given), the GI50 is 6.59 µM in assay [1]; 3.92 µM in assay [3]; 4.73 µM in assay [5]; 3.87 µM in assay [6]; 5.27 µM in [8]; 4.68 µM in assay [7]. For the same compound, the GI50 in assay [9] was 9.4 µM. In addition, the TGI in [1] amounted to 17.5 µM; in [3], 7.44 µM; in [5] it was 9.7 µM; in assay [6], 7.2 µM; in [8], 10.1 µM; in [7], 9.49 µM. Besides, the TGI in [9] is above 25 µM.

In the case of `CC(=O)OC1CC2C(C)(C)C(=O)C=C[C@]2(C)C2CCC3(C)C(=CCC3[C@H](CO)C[C@H](O)C(=O)C(C)(C)O)[C@]12C` (stereo not given in full), the TGI in assay [1] stood at 79.3 µM; in assay [2], 38.5 µM; in [3], 45.6 µM; in assay [5] it was 40.1 µM; in assay [6], 52.3 µM; in assay [8] it was 31.3 µM. The TGI in assay [7] stood at 41 µM; in assay [9], 31.6 µM.

On to `O=C(/C=C/c1ccc(OCCCOc2ccc(/C=C/C(=O)c3ccc(Cl)cc3)cc2)cc1)c1ccc(Cl)cc1`, for which the TGI in [1], in [2], in [3], in assay [4], in assay [5] and in assay [6] was above 100 µM each time. Moreover, the TGI in assay [8], in assay [7] and in [9] was above 100 µM in each case.

Turning to `O=C1NC(=Nc2ccccc2Cl)SC1C(=O)Nc1ccc([N+](=O)[O-])cc1[N+](=O)[O-]` (stereo not given), the TGI in assay [1], in [2], in [3], in assay [4], in [5] and in assay [6] was above 100 µM in each case. For the same compound, the TGI in assay [8], in assay [7] and in [9] was above 100 µM in each case.

Consider `Cc1ccc(S(=O)(=O)N/N=C/CN2C(=O)c3ccccc3C2=O)cc1`, for which the TGI in assay [1], in assay [2], in assay [3], in assay [4], in assay [5] and in [6] was above 100 µM in each case. For the same compound, the TGI in assay [7] and in assay [9] was above 100 µM each time.

Regarding `CC(C)S(=O)(=O)ON1C(=O)c2ccc([N+](=O)[O-])cc2C1=O`, the TGI in [1], in assay [2], in assay [3], in assay [4], in assay [5] and in assay [6] was above 100 µM throughout. The TGI in assay [8], in assay [7] and in [9] was above 100 µM throughout.

The values are drawn from PubChem BioAssay (NCI).
